In this experiment the target is human Factor Xa (Homo sapiens, UniProt P00742). Kind of experiment: In Vitro Enzyme Inhibitor Assay (Factor Xa inhibitory activity). In kind it is biochemical. The note with it: human Factor Xa 0.5-5 nM, pH 8, 150 μM zinc chloride, 1 hour preincubation at room temperature, substrate MesOC-Norleu-Gly-Arg-pNA; read-out: Apparent inhibition constants (Ki). How it is done: The following represents an assay for determining the Factor Xa inhibitory activity of compounds of Formula I.
Apparent inhibition constants (Ki) were calculated from the enzyme progress curves using standard mathematical models.

human Factor Xa, sequence (P00742 235-488 limits assumed): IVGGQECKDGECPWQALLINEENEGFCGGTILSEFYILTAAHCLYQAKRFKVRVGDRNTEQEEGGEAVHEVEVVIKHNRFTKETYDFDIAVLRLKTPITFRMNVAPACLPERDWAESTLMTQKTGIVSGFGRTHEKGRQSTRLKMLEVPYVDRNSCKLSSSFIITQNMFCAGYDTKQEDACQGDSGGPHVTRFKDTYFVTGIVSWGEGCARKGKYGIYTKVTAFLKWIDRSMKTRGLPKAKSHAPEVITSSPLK
human Factor Xa, sequence (P00742 41-179 partner limits assumed): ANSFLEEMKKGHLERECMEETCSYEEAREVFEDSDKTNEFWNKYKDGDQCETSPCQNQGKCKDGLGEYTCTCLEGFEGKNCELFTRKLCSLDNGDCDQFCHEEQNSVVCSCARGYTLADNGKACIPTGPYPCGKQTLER

For the compound “6-(5-amidino-1H-benzimidazol-2-yl)-N-(2-morpholin-4-ylethyl)pyridine-5-carboxamide [Compound 69]”, the Ki turned out to be 40 nM.

Regarding “6-(5-amidino-1H-benzimidazol-2-yl)-N-[2-(3,4-dichlorophenyl)ethyl]pyridine- 5-carboxamide [Compound 88]”, the Ki was 6 nM. The same measure for “6-(5-amidino-1H-benzimidazol-2-yl)-N-[2-(4-methylphenyl)ethyl]pyridine-5-carboxamide [Compound 86]”: 8 nM; for `CCCCc1ccc(-c2nc3cc(C(=N)N)ccc3[nH]2)nc1` [Compound 1]: 3 nM. In the case of `Cc1c(-c2nc3cc(C(=N)N)ccc3[nH]2)ncn1Cc1ccccc1` [Compound 16, 2-(5-methyl-1-benzyl-1H-imidazol-4-yl)-1H-benzimidazole-5-carboxamidine] it was 8 nM; in that of `N=C(N)c1ccc2[nH]c(-c3nccn3Cc3ccccc3)nc2c1` [Compound 17, 2-(1-benzyl-1H-imidazol-2-yl)-1H-benzimidazole-5-carboxamidine], 4 nM; in that of `CCCn1cnc(-c2nc3cc(C(=N)N)ccc3[nH]2)c1C` [Compound 20, 2-(5-methyl-1-propyl-1H-imidazol-4-yl)-1H-benzimidazole-5-carboxamidine], 7 nM. The same measure for `CCCCn1ccnc1-c1nc2cc(C(=N)N)ccc2[nH]1` [Compound 27, 2-(1-butyl-1H-imidazol-2-yl)-1H-benzimidazole-5-carboxamidine]: 5 nM; for `CCOC(=O)Cn1ccnc1-c1nc2cc(C(=N)N)ccc2[nH]1` [Compound 33, ethyl 2-(5-amidino-1H-benzimidazol-2-yl)imidazol-1-ylacetate]: 5 nM. Regarding `Cc1c(-c2nc3cc(C(=N)N)ccc3[nH]2)ncn1CCCN1C(=O)c2ccccc2C1=O` [Compound 36, 2-{1-[3-(1,3-dioxo-1,3-dihydroisoindol-2-yl)propyl]-5-methyl-1H-imidazol-4-yl}-1H-benzimidazole-5-carboxamidine], the Ki turned out to be 5 nM.

Consider `N=C(N)c1ccc2[nH]c(-c3nccn3CCCCN3C(=O)c4ccccc4C3=O)nc2c1` [Compound 39, 2-{1-[4-(1,3-dioxo-1,3-dihydroisoindol-2-yl)butyl]-1H-imidazol-2-yl}-1H-benzimidazole-5-carboxamidine], for which the Ki came to 6 nM. For `COc1ccc(CCNC(=O)c2ccnc(-c3nc4cc(C(=N)N)ccc4[nH]3)c2)cc1` [Compound 50, 6-(5-amidino-1H-benzimidazol-2-yl)-N-[2-(4-methoxyphenyl)ethyl]pyridine-4-carboxamide], the Ki was 10 nM.

As to `COc1ccc(CCNC(=O)c2ccc(-c3nc4cc(C(=N)N)ccc4[nH]3)nc2)cc1Br` [Compound 57], the Ki amounted to 2 nM. As to `N=C(N)c1ccc2[nH]c(-c3nccn3CC(=O)NCCc3ccc(Cl)cc3)nc2c1` [Compound 90, 2-(5-amidino-1H-benzimidazol-2-yl)imidazol-1-yl-N-[2-(4-chlorophenyl)ethyl]acetamide], the Ki was found to be 3 nM. In the case of `N=C(N)c1ccc2[nH]c(-c3nccn3CC(=O)NCCc3ccc(O)cc3)nc2c1` [Compound 95, 2-(5-amidino-1H-benzimidazol-2-yl)imidazol-1-yl-N-[2-(4-hydroxyphenyl)ethyl]acetamide] it was 6 nM. The same measure for `N=C(N)c1ccc2[nH]c(-c3nccn3CC(=O)NCCc3cccc4ccccc34)nc2c1` [Compound 96, 2-(5-amidino-1H-benzimidazol-2-yl)imidazol-1-yl-N-(2-naphth-1-ylethyl)acetamide]: 30 nM.

Take `N=C(N)c1ccc2[nH]c(-c3nccn3CCCC(=O)N3CCOCC3)nc2c1` [Compound 98, 2-[1-(3-morpholin-4-ylcarbonylpropyl)-1H-imidazol-2-yl]-1H-benzimidazole-5-carboxamidine]: the Ki was determined as 2 nM. In the case of `N=C(N)c1ccc2[nH]c(-c3nccn3CCCC(=O)NCCc3ccc(Cl)cc3)nc2c1` [Compound 100, 4-[2-(5-amidino-1H-benzimidazol-2-yl)imidazol-1-yl]-N-[2-(4-chlorophenyl)ethyl]butyramide] it was 6 nM.

The record behind these values is patent publication US6150379A, “Compounds and compositions as anticoagulants” (Axys Pharmaceuticals, Inc., priority 1998, dated 2000).
